Laboratory results from PubChem BioAssay AID248 (DTP/NCI, 2004).
“And” between values parts separate entries of the source, which are not always exact repeats. Identical values can stand only once. Inconclusive results and toxic doses are left out.

System: L1210 leukemia ip in BDF1 mice, survival T/C
Experiment: NCI In Vivo Anticancer Drug Screen. Data for tumor model L1210 Leukemia (intraperitoneal) in B6D2F1 (BDF1) mice
Conditions: endpoint: mean survival time, higher = longer survival
Method in brief: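 Transplantable tumor model; survival measured in treated vs vehicle control mice. Value = treated/control.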

[1] = dose: 100.0 mg/kg/injection, schedule: Q01DX001 (ip), vehicle: saline
[2] = dose: 200.0 mg/kg/injection, schedule: Q01DX001 (ip), vehicle: saline
[3] = dose: 400.0 mg/kg/injection, schedule: Q01DX001 (ip), vehicle: saline
[4] = dose: 25.0 mg/kg/injection, schedule: Q01DX009 (ip), vehicle: Klucel (hydroxypropylcellulose) (HPC)
[5] = dose: 100.0 mg/kg/injection, schedule: Q04DX003 (ip), vehicle: saline with Tween-80

Structure (SMILES): Cc1ccc(S(=O)(=O)Nc2ccc3ncccc3c2[N+](=O)[O-])cc1
- T/C [1]: 94 % of control
- T/C [2]: 93 % of control
- T/C [3]: 98 % of control

Structure (SMILES): O=C(O)c1ccc(N=NSc2ncnc3nc[nH]c23)cc1O
- T/C (dose: 2.5 mg/kg/injection, schedule: Q01DX Z (ip), vehicle: carboxymethylcellulose (CMC)): 150 % of control
- T/C (dose: 5.0 mg/kg/injection, schedule: Q01DX Z (ip), vehicle: carboxymethylcellulose (CMC)): 116 % of control
- T/C (dose: 10.0 mg/kg/injection, schedule: Q01DX Z (ip), vehicle: carboxymethylcellulose (CMC)): 116 % of control
- T/C (dose: 20.0 mg/kg/injection, schedule: Q01DX Z (ip), vehicle: carboxymethylcellulose (CMC)): 107 % of control
- T/C (dose: 40.0 mg/kg/injection, schedule: Q01DX015 (ip), vehicle: carboxymethylcellulose (CMC)): 88 % of control

Structure (SMILES): COc1ccc(NCc2cnc3nc(N)nc(N)c3n2)cc1
- T/C (dose: 20.0 mg/kg/injection, schedule: Q01DX009 (ip), vehicle: saline with Tween-80): 110 % of control
- T/C (dose: 40.0 mg/kg/injection, schedule: Q01DX009 (ip), vehicle: saline with Tween-80): 108 % of control
- T/C (dose: 80.0 mg/kg/injection, schedule: Q01DX009 (ip), vehicle: saline with Tween-80): 106 % of control

Structure (SMILES): CC1C=C(Br)C(=O)c2ccccc2N1S(C)(=O)=O (stereo unspecified)
- T/C (dose: 6.0 mg/kg/injection, schedule: Q04DX003 (ip), vehicle: Klucel (hydroxypropylcellulose) (HPC)): 98 % of control
- T/C (dose: 12.0 mg/kg/injection, schedule: Q04DX003 (ip), vehicle: Klucel (hydroxypropylcellulose) (HPC)): 92 % of control
- T/C (dose: 12.5 mg/kg/injection, schedule: Q01DX009 (ip), vehicle: Klucel (hydroxypropylcellulose) (HPC)): 102 % of control
- T/C [4]: 94 % of control
- T/C (dose: 25.0 mg/kg/injection, schedule: Q04DX003 (ip), vehicle: Klucel (hydroxypropylcellulose) (HPC)): 93 % of control and 96 % of control

Structure (SMILES): O=C1CCCC/C1=C/c1ccco1
- T/C (dose: 100.0 mg/kg/injection, schedule: Q04DX002 (ip), vehicle: Klucel (hydroxypropylcellulose) (HPC)): 95 % of control
- T/C (dose: 200.0 mg/kg/injection, schedule: Q04DX002 (ip), vehicle: Klucel (hydroxypropylcellulose) (HPC)): 99 % of control
- T/C (dose: 400.0 mg/kg/injection, schedule: Q04DX002 (ip), vehicle: Klucel (hydroxypropylcellulose) (HPC)): 99 % of control

Structure (SMILES): CCN(CC)CCCNc1cc(OC)cc2cccnc12
- T/C (dose: 10.0 mg/kg/injection, schedule: Q01DX001 (ip), vehicle: carboxymethylcellulose (CMC)): 107 % of control
- T/C (dose: 20.0 mg/kg/injection, schedule: Q01DX001 (ip), vehicle: carboxymethylcellulose (CMC)): 101 % of control

Structure (SMILES): C=CCNC(=S)Nc1cccc(C(F)(F)F)c1
- T/C (dose: 50.0 mg/kg/injection, schedule: Q01DX001 (sc), vehicle: carboxymethylcellulose (CMC)): 104 % of control
- T/C (dose: 100.0 mg/kg/injection, schedule: Q01DX001 (sc), vehicle: carboxymethylcellulose (CMC)): 101 % of control
- T/C (dose: 200.0 mg/kg/injection, schedule: Q01DX001 (sc), vehicle: carboxymethylcellulose (CMC)): 104 % of control
- T/C (dose: 400.0 mg/kg/injection, schedule: Q01DX001 (sc), vehicle: carboxymethylcellulose (CMC)): 114 % of control

Structure (SMILES): CC12CC3(C)CC(C)(C1)CC(NC(=O)N(CCCl)N=O)(C2)C3
- T/C (dose: 20.0 mg/kg/injection, schedule: Q01DX001 (ip), vehicle: other): 155 % of control
- T/C (dose: 187.0 mg/kg/injection, schedule: Q01DX001 (ip), vehicle: other): 162 % of control
- T/C (dose: 250.0 mg/kg/injection, schedule: Q01DX001 (ip), vehicle: other): 187 % of control
- T/C (dose: 375.0 mg/kg/injection, schedule: Q01DX001 (ip), vehicle: other): 211 % of control
- T/C (dose: 500.0 mg/kg/injection, schedule: Q01DX001 (ip), vehicle: other): 258 % of control
- T/C (dose: 750.0 mg/kg/injection, schedule: Q01DX001 (ip), vehicle: other): 274 % of control

Structure (SMILES): CCCNC(=O)C1C2C=CC(C2)C1C(=O)NCCC (stereo unspecified)
- T/C [5]: 91 % of control
- T/C (dose: 200.0 mg/kg/injection, schedule: Q04DX003 (ip), vehicle: saline with Tween-80): 91 % of control
- T/C (dose: 400.0 mg/kg/injection, schedule: Q04DX003 (ip), vehicle: saline with Tween-80): 91 % of control

Structure (SMILES): O=C(/C=C(/C(=O)c1ccccc1)N1CC1)c1ccccc1
- T/C (dose: 50.0 mg/kg/injection, schedule: Q01DX001 (ip), vehicle: carboxymethylcellulose (CMC)): 113 % of control
- T/C (dose: 100.0 mg/kg/injection, schedule: Q01DX001 (ip), vehicle: carboxymethylcellulose (CMC)): 105 % of control
- T/C (dose: 200.0 mg/kg/injection, schedule: Q01DX001 (ip), vehicle: carboxymethylcellulose (CMC)): 97 % of control
- T/C (dose: 400.0 mg/kg/injection, schedule: Q01DX001 (ip), vehicle: carboxymethylcellulose (CMC)): 103 % of control

Structure (SMILES): CC(C)(C)C(=O)C(O)C(C)(C)C (stereo unspecified)
- T/C [1]: 95 % of control
- T/C [2]: 97 % of control
- T/C [3]: 93 % of control

Structure (SMILES): Nc1ccc(Cc2ccc(N)c(Br)c2)cc1Br
- T/C (dose: 50.0 mg/kg/injection, schedule: Q01DX009 (ip), vehicle: saline): 102 % of control
- T/C [1]: 93 % of control
- T/C (dose: 100.0 mg/kg/injection, schedule: Q01DX009 (ip), vehicle: saline): 98 % of control
- T/C [2]: 98 % of control

Structure (SMILES): COc1ccc(N=NN(C(C)=O)c2ccccc2)cc1
- T/C (dose: 100.0 mg/kg/injection, schedule: Q01DX009 (ip), vehicle: Klucel (hydroxypropylcellulose) (HPC)): 111 % of control
- T/C (dose: 100.0 mg/kg/injection, schedule: Q04DX003 (ip), vehicle: saline): 102 % of control
- T/C (dose: 200.0 mg/kg/injection, schedule: Q01DX009 (ip), vehicle: Klucel (hydroxypropylcellulose) (HPC)): 110 % of control
- T/C (dose: 200.0 mg/kg/injection, schedule: Q04DX003 (ip), vehicle: saline): 111 % of control
- T/C (dose: 400.0 mg/kg/injection, schedule: Q01DX009 (ip), vehicle: Klucel (hydroxypropylcellulose) (HPC)): 96 % of control
- T/C (dose: 400.0 mg/kg/injection, schedule: Q04DX003 (ip), vehicle: saline): 123 % of control

Structure (SMILES): O=C(c1ccccc1)C(O)c1ccccc1 (stereo unspecified)
- T/C (dose: 100.0 mg/kg/injection, schedule: Q01DX009 (ip), vehicle: saline with Tween-80): 89 % of control
- T/C (dose: 200.0 mg/kg/injection, schedule: Q01DX009 (ip), vehicle: saline with Tween-80): 94 % of control
- T/C (dose: 400.0 mg/kg/injection, schedule: Q01DX009 (ip), vehicle: saline with Tween-80): 100 % of control

Structure (SMILES): COc1ccc(NC(=O)CCCc2ccc(N(CCCl)CCCl)cc2)cc1
- T/C (dose: 4.0 mg/kg/injection, schedule: Q12HX018 (ip), vehicle: other): 106 % of control
- T/C (dose: 6.0 mg/kg/injection, schedule: Q12HX018 (ip), vehicle: other): 121 % of control
- T/C (dose: 8.0 mg/kg/injection, schedule: Q12HX018 (ip), vehicle: other): 110 % of control

Structure (SMILES): O=C(O)c1ccccc1Br.[Ni]
- T/C (dose: 3.0 mg/kg/injection, schedule: Q01DX009 (ip), vehicle: Klucel (hydroxypropylcellulose) (HPC)): 91 % of control
- T/C (dose: 6.0 mg/kg/injection, schedule: Q01DX009 (ip), vehicle: Klucel (hydroxypropylcellulose) (HPC)): 94 % of control
- T/C (dose: 12.0 mg/kg/injection, schedule: Q01DX009 (ip), vehicle: Klucel (hydroxypropylcellulose) (HPC)): 94 % of control
- T/C (dose: 12.5 mg/kg/injection, schedule: Q01DX001 (ip), vehicle: Klucel (hydroxypropylcellulose) (HPC)): 97 % of control
- T/C (dose: 25.0 mg/kg/injection, schedule: Q01DX001 (ip), vehicle: Klucel (hydroxypropylcellulose) (HPC)): 93 % of control
- T/C [4]: 88 % of control
- T/C (dose: 50.0 mg/kg/injection, schedule: Q01DX001 (ip), vehicle: Klucel (hydroxypropylcellulose) (HPC)): 103 % of control

Structure (SMILES): Clc1nc(Cl)n2c(Cl)cncc12
- T/C (dose: 25.0 mg/kg/injection, schedule: Q04DX003 (ip), vehicle: saline with Tween-80): 96 % of control
- T/C (dose: 50.0 mg/kg/injection, schedule: Q04DX003 (ip), vehicle: saline with Tween-80): 103 % of control
- T/C [5]: 96 % of control

Structure (SMILES): CC(=O)OC1CCC2(C)C3CCC4(C)C(c5ccc(=O)oc5)CC5OC54C3CCC2(O)C1 (stereo unspecified)
- T/C (dose: 1.0 mg/kg/injection, schedule: Q01DX001 (sc), vehicle: steriod suspending solution): 98 % of control
- T/C (dose: 2.0 mg/kg/injection, schedule: Q01DX001 (sc), vehicle: steriod suspending solution): 96 % of control
- T/C (dose: 4.0 mg/kg/injection, schedule: Q01DX001 (sc), vehicle: steriod suspending solution): 96 % of control
- T/C (dose: 8.0 mg/kg/injection, schedule: Q01DX001 (sc), vehicle: steriod suspending solution): 107 % of control
- T/C (dose: 12.0 mg/kg/injection, schedule: Q01DX001 (sc), vehicle: steriod suspending solution): 113 % of control
- T/C (dose: 16.0 mg/kg/injection, schedule: Q01DX001 (sc), vehicle: steriod suspending solution): 107 % of control
- T/C (dose: 32.0 mg/kg/injection, schedule: Q01DX001 (sc), vehicle: steriod suspending solution): 114 % of control
- T/C (dose: 64.0 mg/kg/injection, schedule: Q01DX001 (sc), vehicle: steriod suspending solution): 103 % of control
- T/C (dose: 128.0 mg/kg/injection, schedule: Q01DX001 (sc), vehicle: steriod suspending solution): 115 % of control
